Key:
[1] = tested on: filaggrin (FLG) expression; assay: Ex vivo skin model, filaggrin immunohistochemical staining; assay type: cell-based, human; details: 0.1% acetyl trifluoromethylphenyl valylglycine added to 0.003% retinol, 7-day culture
Experimental: The effect of acetyl trifluoromethylphenyl valylglycine and/or retinoids on skin turnover/desquamation, filaggrin expression, desmocollin-1 expression was evaluated in an ex vivo skin model. In this study, the effects of acetyl trifluoromethylphenyl valylglycine (0.1%), retinol (0.003%) and acetyl trifluoromethylphenyl valylglycine+retinol on the skin were evaluated by H&E (assessing for overall tissue health), filaggrin (assessing the level of barrier renewal) and desmocollin-1 (assessing the tight junction between the keratinocytes).
Fresh post-abdominoplasty normal human skin samples (3 lots, age 36-59 years old, Hispanic/Caucasian/African American, female) were acquired from BioIVT Inc. (Westbury, N.Y.). Tissue was defatted and cleaned of blood residue. Explant samples were then created using a 12 mm biopsy punch. Samples were cleaned with sterile PBS. Skin biopsies not receiving treatment served as controls. Skin explants were maintained at air-liquid interface at 37° C. and 5% CO2 in four different treatment groups (n=3 per media type): • 1. […]
Skin explants were processed for haematoxylin and eosin, and immunohistochemical staining (Reveal Biosciences, CA). […] The primary staining was followed by rabbit anti-mouse IgG or anti-rabbit Poly-HRP-IgG respectively and were detected using the Bond Polymer Refine Detection kit (DS9800, Leica Biosystems, UK). […]

[2] = assay type: in vitro ADME, human
Experimental: Human skin samples were obtained from abdominal surgery. Excess subcutaneous fat was removed, if necessary. Skin samples were excised and cut into pieces of around 2 cm×2 cm. Thickness was measured and transepidermal water loss (TEWL) was measured. The human skin was included in the study if the TEWL was between 0.5 and 13 g/m^2/h for abdominal skin. The 2 cm^2 skin samples were kept in a static cell in a diffusion chamber in a Franz cell horizontal cell clamp system (Crown Glass Company, Inc.) and maintained at a constant temperature of 32° C.±1° C. The static cells consist of a donor chamber and a receptor chamber with a 7 mL receptor fluid compartment separated by the skin.
The cells were placed on a magnetic stirrer which was integrated with a fixed temperature water bath maintained in order to have 32° C.±1° C. at the skin surface. The receptor compartment of each cell was filled with the receptor fluid (PBS) and was continuously stirred. The skin samples were placed on the receptor compartment. The donor compartment was then placed onto the skin samples. […]
A composition containing 2 wt % acetyl trifluoromethylphenyl valylglycine was applied to the skin sample at a rate of 10 mg/cell using a positive displacement pipette and the exact amount applied was determined by weight then recorded (Sartorius Entris II Essential Analytical balance, Thermo-Fisher). […]
The skin was then stripped with consistent weight and time of application. […] The strips samples were stored with solvent (methanol) at −20° C. for a maximum of 5 days before being analyzed. […] The RS vials were stored with solvent (methanol) at −20° C. for a maximum of 7 days before being analyzed. Dermis and epidermis samples were stored with solvent at −20° C. for a maximum of 7 days before being analyzed. The receptor fluid was taken 16 hours after the application and the samples were analyzed.
Receptor fluid samples were stored at −20° C. for a maximum of 6 days before being analyzed. […] Samples were stored at −20° C. for a maximum of 5 days before being analyzed.
The final extract was analyzed by LC-MS/MS. […]

[3] = tested on: normal human skin samples (explants); assay: Ex vivo skin model, H&E staining (overall tissue health); assay type: cell-based; details: 0.003% retinol in media, 7-day culture
[4] = tested on: desmocollin-1 (DSC1) expression; assay: Ex vivo skin model, desmocollin-1 immunohistochemical staining; assay type: cell-based, human; details: 0.003% retinol in media, 7-day culture
Experimental: The effect of acetyl trifluoromethylphenyl valylglycine and/or retinoids on skin turnover/desquamation, filaggrin expression, desmocollin-1 expression was evaluated in an ex vivo skin model. In this study, the effects of acetyl trifluoromethylphenyl valylglycine (0.1%), retinol (0.003%) and acetyl trifluoromethylphenyl valylglycine+retinol on the skin were evaluated by H&E (assessing for overall tissue health), filaggrin (assessing the level of barrier renewal) and desmocollin-1 (assessing the tight junction between the keratinocytes). Fresh post-abdominoplasty normal human skin samples (3 lots, age 36-59 years old, Hispanic/Caucasian/African American, female) were acquired from BioIVT Inc. (Westbury, N.Y.). Tissue was defatted and cleaned of blood residue. Explant samples were then created using a 12 mm biopsy punch. Samples were cleaned with sterile PBS. Skin biopsies not receiving treatment served as controls. Skin explants were maintained at air-liquid interface at 37° C. and 5% CO2 in four different treatment groups (n=3 per media type): • 1. […] The primary staining was followed by rabbit anti-mouse IgG or anti-rabbit Poly-HRP-IgG respectively and were detected using the Bond Polymer Refine Detection kit (DS9800, Leica Biosystems, UK). […]

amount penetrated through the stratum corneum [2] | amount penetrating past the stratum corneum barrier into epidermis, dermis and receptor fluid [2] | dermal dose [2] | SMILES | expression of filaggrin [1] | change in H&E [3] | expression of desmocollin-1 [4]
about 0.08 wt % | about 0.8% | at least 0.08 wt % | CC(=O)N(c1cccc(C(F)(F)F)c1)C(C(=O)NCC(=O)O)C(C)C (stereo not drawn) [acetyl trifluoromethylphenyl valylglycine] | increases the expression |  | 
 |  |  | CC1=C(/C=C/C(C)=C/C=C/C(C)=C/CO)C(C)(C)CCC1 [retinol] |  | some mild level of skin irritation | downward expression

Reference: patent US20230190608A1, “COMPOSITIONS AND METHODS FOR IMPROVING THE APPEARANCE OF SKIN” (L'Oreal, priority 2021, published 2023)
